25 molecules from US11925632B2, “Isoquinoline derivatives for use in treating GLUT1 deficiency syndrome” (GLIAPHARM SA, priority 2019, dated 2024) can be followed below.

pEC50, pIC50: −log10 of the molar value.

What all share (format): cell-based
Test [1] concerns astrocytes. The test can be described thus: Extracellular medium acidification (SNARF5) assay in astrocytes. The settings on record: Mus musculus, Astrocyte, 1.5 h; astrocytes in vitro, 90 min stimulation, 10 nM to 30 μM. As to the method:
Secretion of lactate was measured indirectly through the acidification of extracellular medium using extracellular pH sensor SNARE-5F-(AND-6)-CAR (SNARF5) as described below.
Secretion of lactate was measured indirectly through the acidification of extracellular medium using extracellular pH sensor […] (SNARF5). After washing cells twice with stimulation medium (DMEM (D5030, Sigma), 1 mM […], and 5 mM Glucose, pH 7.4) at 37° C., cells were stimulated with compounds at a final concentration ranging from 10 nM to 30 μM in 50 μl per well of stimulation medium supplemented with 10 μM of SNARF5 (Life Technologies Corporation). Each compound was tested in two different plates for duplicates. After 90 min stimulation, fluorescence was read at exc. (excitation) 480 nm/emm. (emission) 580 nm and at exc 480 nm/emm. 630 nm. The ratio of fluorescence between 630 nm and 580 emission values, which is proportional to extracellular pH, was calculated. In each plate, 8 wells were used for negative controls (DMSO 0.1%) and 8 wells were used for positive controls (CCCP 2 μM in DMSO).
Table 3 below lists compounds that are active on the extracellular medium acidification (SNARF5) assay in astrocytes in vitro, which indicates their ability to produce lactate. ‘+’ indicates activity of compounds with EC50>5 μM; ‘++’ indicates activity of compounds with EC50<5 μM.
(§1) Primary cultures of cerebrocortical astrocytes were obtained from 1 to 2-day-old OF1 mouse pups (Charles River). Briefly, cortices were isolated and minced in small pieces under a dissecting microscope. The cells were incubated for 30 min at 37° C. in a solution containing 20 U/ml papain, 1 mM L-cysteine and 10 kU/ml DNase I. After dissociation, papain activity was stopped by the addition of fetal calf serum (FCS). Single-cell suspension was then obtained by mechanical dissociation, which consisted in cells trituration in a DMEM D7777 medium supplemented with 44 mm NaHCO3, 10 ml/L antibiotic/antimycotic solution and 10% FCS. The cells were seeded at an average density of ˜10′000 cells/cm^2 on poly-D-lysine coated 96- or 12-well culture plates, depending on their use, and grown in DMEM D7777 medium supplemented with 44 mm NaHCO3, 10 ml/L antibiotic/antimycotic solution and 10% FCS at 37° C. in a humidified atmosphere containing 5% CO2/95% air. Culture medium was renewed twice a week. Cells were stimulated and harvested between DIV14 and DIV17, when confluence and cell growth were optimal.

Test [2] deals with primary mouse astrocytes. The experiment in a line: Extracellular lactate quantification (lactate release from primary astrocytes). The note with it: Astrocyte, 1.5 h; for pEC50: primary mouse astrocytes, 90 min stimulation, read-out: EC50 of astrocyte-mediated lactate secretion; for Emax: Mus musculus, positive control CCCP 2 μM, 90 min, read-out: Maximal effect on lactate secretion compared to the effect of the positive control (100%). As to the method: as §1
Secretion of L-lactate was measured in the extracellular medium of 96-well plated astrocytes after 90 min stimulation (at 37° C., in 5% CO2/95% air conditions) with Vehicle (DMSO), the compounds of the invention (100 nM to 100 μM) or positive control. […] Stimulation medium was composed of D5030 medium complemented with 5 mM D-glucose and 44 mM sodium bicarbonate, pH 7.2. To quantify lactate concentrations in the extracellular medium, 200 μl of a 0.2M Glycine-semicarbazide buffer (pH 10) containing 3 mM NAD and 14 U/ml LDH was added to each well of a 96-well plate containing 30 μl aliquots of extracellular medium. Samples were incubated at 37° C. for 1 h. Fluorescence intensity (340 nm excitation/450 nm emission), which represents the amount of NADH produced, was measured, and lactate concentration values were determined relative to a standard curve of L-lactate concentrations.
The release of lactate from primary mouse astrocytes treated with compound (1) at 10 μM was quantified by (FIG. 1). Accumulation of lactate in the extracellular medium was measured over a period of 1.5 h. […] Maximal effects of the compounds were 38.6% (1), 38% (2), 31% (4) and 76% (3) when compared to the effect of the positive control (100%) for compounds (1) to (4), respectively.

In test [3] the test system is primary astrocytes. The test can be described thus: MTT mitochondrial activity assay. The note with it: Mus musculus, Astrocyte, 24 h treatment. How it is done:
as §1
To monitor mitochondrial activity in astrocytes, which is linked to the metabolic process of glycolysis and production of lactate, astrocytes in 96-well plates were stimulated for 24 h (37° C. 5% CO2/95% air) with the compounds of the invention ranging from 0.2 to 200 μM.
After stimulation, 5 mg/ml thiazol blue tetrazolium bromide (MTT) in D5030 medium complemented with 5 mM D-glucose and 44 mM sodium bicarbonate (pH 7.2) was added to each well, and cells were incubated for 4 h at 37° C. (5% CO2). The medium was then removed and the amount of reduced MTT, i.e. formazan, solubilized in DMSO (50 μl/well) was determined using a spectrophotometer (absorbance of 570 nm).
The mitochondrial activity in primary astrocytes treated with Compounds (1) to (4) at concentrations ranging from 1 nM to 200 μM. After 24 h, mitochondrial activity was monitored in MTT colorimetric assay as described above (FIG. 3).
For orientation: Tetrazolium dyes change colour on reduction, which living cells bring about.

The pEC50 is the EC50 on a negative log10 scale, so that one unit is a factor of ten. `COc1cc2ccnc(Nc3ccc(SC)cc3)c2cc1OC` [Example 18, 6,7-dimethoxy-N-(4-(methylthio)phenyl)isoquinolin-1-amine]: the pEC50 in test [1] is under 5.30.
On the same count and under the same terms, as for `COCCOc1ccc(Nc2nccc3cc(OC)c(OC)cc23)cc1` [Example 8, 6,7-dimethoxy-N-(4-(2-methoxyethoxy)phenyl)isoquinolin-1-amine], the figure is under 5.30; as for `COc1ccc2c(Nc3ccc(OC(F)(F)F)cc3)nccc2c1` [Example 12, 6-methoxy-N-(4-(trifluoromethoxy)phenyl)isoquinolin-1-amine], under 5.30.
Regarding `FC(F)(F)Oc1ccc(Nc2nccc3cc(Cl)ccc23)cc1` [Example 13, 6-chloro-N-(4-(trifluoromethoxy)phenyl)isoquinolin-1-amine], the pEC50 in test [1] is under 5.30.
`COc1cc2ccnc(Nc3ccc(OC(F)(F)F)c(F)c3)c2cc1OC` [Example 14, N-(3-fluoro-4-(trifluoromethoxy)phenyl)-6,7-dimethoxyisoquinolin-1-amine]: the pEC50 in test [1] is under 5.30.
`COCc1ccc(Nc2nccc3cc(OC)c(OC)cc23)cc1` [Example 9, 6,7-dimethoxy-N-(4-(methoxymethyl)phenyl)isoquinolin-1-amine]: the pEC50 in test [1] was under 5.30.
Same read-out and setting: then `COc1cc2ccnc(Nc3ccc(C#N)cc3C(F)(F)F)c2cc1OC` [Example 17, 4-((6,7-dimethoxyisoquinolin-1-yl)amino)-3-(trifluoromethyl)benzo-nitrite], with under 5.30.
In the case of `CCc1ccc2c(Nc3ccc(OC(F)(F)F)cc3)nccc2c1` [Example 30, 6-ethyl-N-(4-(trifluoromethoxy)phenyl)isoquinolin-1-amine], in test [1], the negative-log EC50 (pEC50) was over 5.30.
The same measure, in the same setting: then `COc1cc2ccnc(Nc3cccc(OC(F)(F)F)c3)c2cc1OC` [Example 11, 6,7-dimethoxy-N-(3-(trifluoromethoxy)phenyl)isoquinolin-1-amine], with over 5.30.
In general, pIC50 refers to the negative decadic logarithm of the IC50, by convention in mol/L. Read a high pIC50 as a small IC50. Regarding `COc1cc2ccnc(Cc3ccc(OC(F)(F)F)cc3)c2cc1OC` [Example 4, 6,7-dimethoxy-1-(4-(trifluoromethoxy)benzyl)isoquinoline], the values for the pEC50 in test [1] and in test [2] were under 5.30 and 4.98, respectively. For the same molecule, the Emax in test [2] was 31%. Besides, in test [3], the pIC50 was 5.26.
With `CN(C)c1ccc2c(Nc3ccc(OC(F)(F)F)cc3)nccc2c1` [Example 27, N^6,N^6-dimethyl-N^1-(4-(trifluoromethoxy)phenyl)isoquinoline-1,6-diamine], the pEC50 in test [1] is over 5.30.
Regarding `COc1cc2ccnc(Nc3cccc(N(C)C)c3)c2cc1OC` [Example 15, N^1-(6,7-dimethoxyisoquinolin-1-yl)-N^3,N^3-dimethylbenzene-1,3-diamine], in test [1], the pEC50 is under 5.30.
On the same count and under the same terms, as for `COc1cc2ccnc(Nc3ccc(C)cc3)c2cc1OC` [Example 6, 6,7-dimethoxy-N-(p-tolyl)isoquinolin-1-amine], the figure is under 5.30.
`FC(F)(F)Oc1ccc(Nc2nccc3ccccc23)cc1` [Example 3, N-(4-(trifluoromethoxy)phenyl)isoquinolin-1-amine]: the pEC50 in test [1] was under 5.30. Further, in test [2], the negative-log EC50 (pEC50) is 4.96 and the Emax was found to be 76%. Also, in test [3], the negative logarithm of the IC50 (pIC50) is 4.58.
On to `COC(=O)c1ccc2c(Nc3ccc(OC(F)(F)F)cc3)nccc2c1` [Example 29, methyl 1-((4-(trifluoromethoxy)phenyl)amino)isoquinoline-6-carboxylate], for which the negative logarithm of the EC50 (pEC50) in test [1] was over 5.30.
Consider `COc1cc2ccnc(Nc3ccc(C(F)(F)F)cc3)c2cc1OC` [Example 2, 6,7-dimethoxy-N-(4-(trifluoromethyl)phenyl)isoquinolin-1-amine], for which, in test [1], the negative logarithm of the EC50 (pEC50) is under 5.30. In test [2], the negative-log EC50 (pEC50) is 5.00 and the Emax was 38%. Also, in test [3], the pIC50 was 4.37.
As to `COc1ccc2c(Nc3ccc(OC(F)(F)F)cc3)ncc(Br)c2c1` [Example 25, 4-bromo-6-methoxy-N-(4-(trifluoromethoxy)phenyl)isoquinolin-1-amine], the pEC50 in test [1] was under 5.30.
The same measure, in the same setting: as for `COc1ccc2c(Nc3ccc(OC(F)(F)F)cc3)ncc(C)c2c1` [Example 24, 6-methoxy-4-methyl-N-(4-(trifluoromethoxy)phenyl)isoquinolin-1-amine], the figure is under 5.30; as for `COc1cc2ccnc(Nc3ccc(OC(F)(F)F)c(Cl)c3)c2cc1OC` [Example 19, N-(3-chloro-4-(trifluoromethoxy)phenyl)-6,7-dimethoxyisoquinolin-1-amine], over 5.30; as for `COc1cc2ccnc(Nc3cccc(OC(F)F)c3)c2cc1OC` [Example 16, N-(3-(difluoromethoxy)phenyl)-6,7-dimethoxyisoquinolin-1-amine], over 5.30.
For the molecule `COc1ccc(Nc2nccc3cc(OC)c(OC)cc23)cc1` [Example 7, 6,7-dimethoxy-N-(4-methoxyphenyl)isoquinolin-1-amine], the pEC50 in test [1] is under 5.30.
Molecule `COc1ccc(Nc2nccc3cc(OC)c(OC)cc23)cc1OC` [Example 5, N-(3,4-dimethoxyphenyl)-6,7-dimethoxyisoquinolin-1-amine] gave a negative-log EC50 (pEC50) in test [1] of under 5.30.
Take `COc1ccc2c(Nc3ccc(OC(F)(F)F)cc3)nccc2c1C` [Example 21, 6-methoxy-5-methyl-N-(4-(trifluoromethoxy)phenyl)isoquinolin-1-amine]: the pEC50 in test [1] was over 5.30.
Same read-out and setting: then `COCCc1ccc(Nc2nccc3cc(OC)c(OC)cc23)cc1` [Example 20, 6,7-dimethoxy-N-(4-(2-methoxyethyl)phenyl)isoquinolin-1-amine], with over 5.30.
The same measure, in the same setting: then `COc1cc2ccnc(Nc3ccc(OC(F)(F)F)cc3F)c2cc1OC` [Example 10, N-(2-fluoro-4-(trifluoromethoxy)phenyl)-6,7-dimethoxyisoquinolin-1-amine], with under 5.30.
